In patent publication US8575359B2, “Acid-sensitive linkers for drug delivery” (The Regents of the University of California, priority 2006, dated 2013):
Like-named read-outs stand apart in the source and are kept apart here.

Test system: human ovarian carcinoma 2008 cells
Test: Cytotoxicity (colony formation assay) on human ovarian carcinoma 2008 cells
Format: cell-based
Procedure: Cells were exposed to various concentrations of 10 for 1 hour and survival was determined after a further […] period of growth in drug-free medium.
Human ovarian carcinoma 2008 cells were plated in 6-well plates at a density of 200 cells in 3 mL of media (RPMI-1640+10% Fetal Bovine Serum) per well and incubated overnight to allow the cells to adhere to the bottom of the wells. After overnight incubation the media was removed from each well and fresh growth media containing different concentrations of 10 was added to the wells. The cells were incubated for 1 hour in the presence of 10. Following the removal of the solutions containing 10, the cells were incubated with fresh media for […] to allow surviving cells to form colonies. […] Clusters containing >50 cells were scored as colonies using an AlphaInontech Imager. The colony formation assay was performed in triplicate on 3 independent occasions.
Chem. Int. Ed. 2004, 43, 739-742. Norrisolide Core (5, 11 μmol) was dissolved in 0.5 mL of dichloromethane (DCM). 4-carboxybenzaldehye (19 μmol), N,N′-dicyclohexylcarbodiimide (DCC, 19 μmol) and Dimethylaminopyridine (DMAP, 1 crystal) was added and stirred overnight at 23° C.

[1] = Table 3, human ovarian carcinoma 2008 cells, read-out: IC50
[2] = human ovarian carcinoma 2008 cells, relative to compound 10

Compound | IC50 [1] [µM] | other results
CCOC(c1ccccc1)n1ccnc1 (stereo not drawn) [Compound 1, N-ethoxybenzylimidazole] | 0.01 | –
CCOC(c1ccc(Br)cc1)n1ccnc1 (stereo not drawn) [Compound 2] | 9 | –
CCOC(c1ccc([N+](=O)[O-])cc1)n1ccnc1 (stereo not drawn) [Compound 3] | 0.1 | –
CCCCc1ccc(C(OCC)n2ccnc2)cc1 (stereo not drawn) [Compound 4] | 0.25 | –
CCOC(c1ccccc1Br)n1ccnc1 (stereo not drawn) [Compound 5] | 52 | –
CCOC(c1ccccc1OC)n1ccnc1 (stereo not drawn) [Compound 6] | 55 | –
COc1cccc2c1C(=O)c1c(O)c3c(c(O)c1C2=O)C[C@@](O)(C(=O)CO)C[C@@H]3O[C@H]1C[C@H](NC(=O)c2ccc(C=O)cc2)[C@H](O)[C@H](C)O1 [Compound 10, N-(4-formylbenzoyl)doxorubicin] | – | IC50 (1 hour exposure, colony formation, read-out: IC50 against human ovarian carcinoma 2008 cells): ~12 µM
COc1cccc2c1C(=O)c1c(O)c3c(c(O)c1C2=O)C[C@@](O)(C(=O)CO)C[C@@H]3O[C@H]1C[C@H](N)[C@H](O)[C@H](C)O1 [doxorubicin, Doxorubicin, reference compound] | – | IC50 fold lower than that of 10 [2]: > 10 fold
N-ethoxybenzylimidazole-doxorubicin Conjugate [Compound 9] | – | IC50 fold higher than that of 10 [2]: 2 fold
